Read-outs that look alike come from different tables or passages of the source.
What was measured:
[1] = tested on: HCV replicon; assay: Anti-HCV replicon assay (EC50, luciferase readout); type: cell-based; conditions: Hepatitis C virus
Protocol: (§1) The anti-HCV activity of the pyrido[3,2-d]pyrimidine derivatives of this invention was tested in a human hepatoma Huh-7 cell line harbouring a HCV replicon. The assay comprised the following steps:
(§2) Step 1: Compound Preparation and Serial Dilution
(§3) • 1. for water soluble pyrido[3,2-d]pyrimidine derivatives, a volume of 500 μL of solution in cell media (DMEM, 10% FBS, P/S, L-Glutamine) was prepared with a concentration being twice the concentration of the starting final serial dilution concentration. A volume of 150 μL of the solution was added to the pre-specified wells in column 1 of a 96-well cell culture plate (PerkinElmer, white plate, cat. #6005181, for EC50 assay; black plate, cat. #6005182 for CC50 assay). The rest of the plate, columns 2-12, was filled with 100 μL of cell media. The plate was then placed on a Precision 2000 Workstation to start the serial dilution. Compounds were diluted three times each step from column 1 to column 10. Column 11 was used as a blank control (no compound added). • 2. for pyrido[3,2-d]pyrimidine derivatives requiring DMSO to dissolve, serial dilution is performed in 50% DMSO in a 384-well plate. A solution containing a compound at 100-fold concentration of the starting final serial dilution concentration was prepared in 50% DMSO and added to the pre-specified wells in column 1 of a polypropylene 384-well plate. The plate was then placed on a Precision 2000 Workstation to start the serial dilution. After the serial dilution, a volume of 2 μL of the solution was transferred from the 384-well plate to a 96-well cell culture plate containing 100 μL of cell media on a Biomek FX Workstation. The DMSO concentration in the final assay condition was 0.5% after cells are added to the plate and the total volume in each well is brought to 200 μL. Step 2: to each well of the serial dilution plate prepared above, 100 μL of cell media containing 6000 suspended Huh-7 HCV replicon cells was added with a Multidrop workstation. The plates were incubated for 3 days at 37° C. with 5% CO2. Step 3: Detection: • a) for the EC50 assay, the media in a 96-well cell culture plate was aspirated with a Biotek EL405 plate-washer. A volume of 200 μL of a solution containing a 1:1 mixture of cell-lysis buffer (Promega, Luciferase Cell Culture Lysis 5X Reagent, cat. #E1531) and luciferase substrate solution (Promega, Luciferase Assay, cat. # E4550) was added to each well of the plate with Multidrop. The plate was incubated for 30 minutes at room temperature before the luminescence signal was measured with a TopCount plate-reader. • b) for the CC50 assay, a volume of 100 μL of pre-mixed CellTiter-Glo (Promega, cat. # G7572) solution is added directly to the cell culture in each well of the plate and the luminescence signal is measured with a TopCount plate-reader after 10 minutes of incubation at room temperature.
(§4) Results in table 13 are expressed by the following data: • the 50% effective concentration (EC50), i.e. the concentration that protects 50% of the cell monolayer from virus-induced cythopathic effect, and • the 50% cytostatic concentration (CC50), i.e. the concentration that results in 50% inhibition of cell growth.

[2] = CC50 assay (CellTiter-Glo) in Huh-7 HCV replicon cells; type: cell-based, human; conditions: human, 50% cytostatic concentration
Protocol: as §1, §2, §3, §4

[3] = 72 h, human hepatoma Huh-7 cell line harbouring a HCV replicon, 3 days, luciferase, read-out: EC50

Structure (SMILES)	EC50 [1, 3] [µM]	CC50 at 3 days [2] [µM]	EC50 ([1]; Huh-7, 72 h) [µM]
CC(C)C(=O)Nc1ccc(-c2ccc3nc(N)nc(O[C@H]4CCOC4)c3n2)cc1 [Example 27, N-{4-[2-Amino-4-(tetrahydro-furan-3-yloxy)-pyrido[3,2-d]pyrimidin-6-yl]-phenyl}-isobutyramide]	< 0.3	> 20	–
Nc1nc(O[C@@H]2CCOC2)c2nc(-c3ccc(N4CCCC4=O)cc3)ccc2n1 [Example 28, 1-{4-[2-Amino-4-(tetrahydro-furan-3-yloxy)-pyrido[3,2-d]pyrimidin-6-yl]-phenyl}-pyrrolidin-2-one]	< 0.3	> 20	–
CC(C)Oc1nc(N)nc2ccc(-c3ccc(NC(=O)C(C)C)cc3)nc12 [Example 29, N-[4-(2-amino-4-isopropoxy-pyrido[3,2-d]pyrimidin-6-yl)-phenyl]-isobutyramide]	< 0.3	> 20	–
CCOc1nc(N)nc2ccc(-c3ccc(NC(=O)C4(N)CC4)c(F)c3)nc12 [Example 30, 1-Amino-cyclopropanecarboxylic acid [4-(2-amino-4-ethoxy-pyrido[3,2-d]pyrimidin-6-yl)-2-fluoro-phenyl]-amide]	< 0.3	> 20	–
CCOc1nc(N)nc2ccc(-c3ccc(Nc4nccs4)cc3)nc12 [Example 31]	0.3 to 1	10 to 20	–
CCOc1nc(N)nc2ccc(-c3ccc(Nc4nncs4)cc3)nc12 [Example 32, 4-Ethoxy-6-[4-([1,3,4]thiadiazol-2-ylamino)-phenyl]-pyrido[3,2-d]pyrimidin-2-ylamine]	0.3 to 1	> 20	–
CCOc1nc(N)nc2ccc(-c3ccc(NC(=O)C4(O)CC4)cc3)nc12 [Example 33, 1-Hydroxy-cyclopropanecarboxylic acid [4-(2-amino-4-ethoxy-pyrido[3,2-d]pyrimidin-6-yl)-phenyl]-amide]	< 0.3	> 20	–
CCOc1nc(N)nc2ccc(-c3ccc(NC(=O)[C@H](C)N)c(F)c3)nc12 [Example 34, 2-Amino-N-[4-(2-amino-4-ethoxy-pyrido[3,2-d]pyrimidin-6-yl)-2-fluoro-phenyl]-propanamide]	< 0.3	> 20	–
CCOc1nc(N)nc2ccc(-c3cccc(NS(=O)(=O)CC(F)(F)F)c3)nc12 [Example 35, 2,2,2-Trifluoro-ethanesulfonic acid [3-(2-amino-4-ethoxy-pyrido[3,2-d]pyrimidin-6-yl)-phenyl]-amide]	0.3 to 1	> 20	–
CCOc1nc(N)nc2ccc(-c3ccc(NC(=O)C4(N)CC4)cc3)nc12 [Example 36, 1-Amino-cyclopropanecarboxylic acid [4-(2-amino-4-ethoxy-pyrido[3,2-d]pyrimidin-6-yl)-phenyl]-amide]	< 0.3	> 20	–
CCOc1nc(N)nc2ccc(-c3ccc(NC(=O)C(C)(C)N)cc3)nc12 [Example 37, 2-Amino-N-[4-(2-amino-4-ethoxy-pyrido[3,2-d]pyrimidin-6-yl)-phenyl]-2-methyl-propionamide]	< 0.3	> 20	–
CCOc1nc(N)nc2ccc(-c3ccc(NC(=O)[C@H](C)N)c(OC)c3)nc12 [Example 38, 2-Amino-N-[4-(2-amino-4-ethoxy-pyrido[3,2-d]pyrimidin-6-yl)-2-methoxy-phenyl]-propionamide]	< 0.3	> 20	–
CCOc1nc(N)nc2ccc(-c3ccc(NC(=O)C4CC4)cc3)nc12 [Example 39, Cyclopropanecarboxylic acid [4-(2-amino-4-ethoxy-pyrido[3,2-d]pyrimidin-6-yl)-phenyl]-amide]	< 0.3	> 20	–
CCOc1nc(N)nc2ccc(-c3cccc(NS(=O)(=O)c4ccc(C)cc4)c3)nc12 [Example 40]	0.3 to 1	> 20	–
CCOc1nc(N)nc2ccc(-c3ccc(NC(=O)[C@@H](N)CO)cc3)nc12 [Example 41, 2-Amino-N-[4-(2-amino-4-ethoxy-pyrido[3,2-d]pyrimidin-6-yl)-phenyl]-3-hydroxy-propionamide]	< 0.3	> 20	–
CCOc1nc(N)nc2ccc(-c3ccc(NC(=O)[C@H](C)N)cc3)nc12 [Example 42, 2-Amino-N-[4-(2-amino-4-ethoxy-pyrido[3,2-d]pyrimidin-6-yl)-phenyl]-propionamide]	< 0.3	> 20	–
CCOc1nc(N)nc2ccc(-c3ccc(NS(C)(=O)=O)cc3)nc12 [Example 43, N-[4-(2-Amino-4-ethoxy-pyrido[3,2-d]pyrimidin-6-yl)-phenyl]-methanesulfonamide]	> 1	> 20	–
CCOc1nc(N)nc2ccc(-c3ccc(NC(=O)OC)cc3)nc12 [Example 44, [4-(2-Amino-4-ethoxy-pyrido[3,2-d]pyrimidin-6-yl)-phenyl]-carbamic acid methyl ester]	–	> 20	0.3 to 1
CCOc1nc(N)nc2ccc(-c3cccc(NS(C)(=O)=O)c3)nc12 [Example 45, N-[3-(2-Amino-4-ethoxy-pyrido[3,2-d]pyrimidin-6-yl)-phenyl]-methanesulfonamide]	< 0.3	> 20	–
CCOc1nc(N)nc2ccc(-c3ccc(NC(=O)CC)cc3)nc12 [Example 46, N-[4-(2-Amino-4-ethoxy-pyrido[3,2-d]pyrimidin-6-yl)-phenyl]-propionamide]	< 0.3	> 20	–
CCOc1nc(N)nc2ccc(-c3ncc(N)s3)nc12 [Example 47, 6-(5-amino-thiazol-2-yl)-4-ethoxy-pyrido[3,2-d]pyrimidin-2-ylamine]	< 0.3	10 to 20	–
CCOc1nc(N)nc2ccc(-c3cccc(NS(=O)(=O)c4cnc(NC(C)=O)s4)c3)nc12 [Example 48, N-{5-[3-(2-Amino-4-ethoxy-pyrido[3,2-d]pyrimidin-6-yl)-phenylsulfamoyl]-thiazol-2-yl}-acetamide]	< 0.3	> 20	–
CCOc1nc(N)nc2ccc(-c3cccc(NS(=O)(=O)c4cn(C)cn4)c3)nc12 [Example 49, 1-Methyl-1H-imidazole-4-sulfonic acid [3-(2-amino-4-ethoxy-pyrido[3,2-d]pyrimidin-6-yl)-phenyl]-amide]	0.3 to 1	> 20	–
CCOc1nc(N)nc2ccc(-c3cccc(NS(=O)(=O)c4c(C)noc4C)c3)nc12 [Example 50, 3,5-Dimethyl-isoxazole-4-sulfonic acid [3-(2-amino-4-ethoxy-pyrido[3,2-d]pyrimidin-6-yl)-phenyl]-amide]	0.3 to 1	> 20	–
CCOc1nc(N)nc2ccc(-c3cccc(NS(=O)(=O)C4CCS(=O)(=O)C4)c3)nc12 (stereo not shown) [Example 51, 1,1-Dioxo-tetrahydro-1?^6-thiophene-3-sulfonic acid [3-(2-amino-4-ethoxy-pyrido[3,2-d]pyrimidin-6-yl)-phenyl]-amide]	< 0.3	> 20	–
CCOc1nc(N)nc2ccc(-c3cccc(NS(=O)(=O)C(C)C)c3)nc12 [Example 52, Propane-2-sulfonic acid[3-(2-amino-4-ethoxy-pyrido[3,2-d]pyrimidin-6-yl)-phenyl]-amide]	< 0.3	< 10	–
CCOc1nc(N)nc2ccc(-c3cccc(NS(=O)(=O)C4CC4)c3)nc12 [Example 53, Cyclopropanesulfonic acid[3-(2-amino-4-ethoxy-pyrido[3,2-d]pyrimidin-6-yl)-phenyl]-amide]	< 0.3	> 20	–
CCOc1nc(N)nc2ccc(-c3cccc(NS(=O)(=O)CC)c3)nc12 [Example 54, Ethanesulfonic acid [3-(2-amino-4-ethoxy-pyrido[3,2-d]pyrimidin-6-yl)-phenyl]-amide]	< 0.3	> 20	–
CCOc1nc(N)nc2ccc(-c3ccc(NS(=O)(=O)CC)cc3)nc12 [Example 55, ethanesulfonic acid [4-(2-amino-4-ethoxy-pyrido[3,2-d]pyrimidin-6-yl)-phenyl]-amide]	> 1	> 20	–

From US8143394B2, “Pyrido(3,2-d)pyrimidines useful for treating viral infections” (Gilead Sciences, Inc., priority 2006, dated 2012)
